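Interpolation was linear, between the two tested concentrations surrounding the appropriate level; five concentrations were tested over 48 hours in 96-well plates. GI50 is the concentration that inhibits growth by half. TGI is the concentration that stops growth completely.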
These molecules were tested on MALME-3M melanoma (assay: NCI anticancer screen, dose series, 48 h).

| SMILES | GI50 | TGI |
| --- | --- | --- |
| C=C[C@H]1C[C@@H]2C[C@@H]3[C@H]4C/C=C\C(=O)NCCCC5NC(=O)C(=C(O)/C=C/[C@@H]4CC(=O)[C@H]3[C@@H]2[C@H]1C)C5=O (stereo partly specified) | 0.225 µM | 0.56 µM |
| Fc1ccc(C2SCc3nc4ccccc4n32)cc1Cl (stereo unspecified) |  | 31 µM |
| CC1=N/C(=C\c2cccc([N+](=O)[O-])c2)C(=O)O1 |  | > 100 µM |
| Cn1c2ccccc2c2c3[nH]c(=O)[nH]c(=O)c3c3c4ccccc4n(C)c3c21 | 2.03 µM | 6.14 µM |
| CO[C@H]1C=C[C@@]23c4cc5c(cc4CO[C@]2(O)CN(C)[C@H]3C1)OCO5 |  | > 100 µM |
| CC(C)N1CN(C(C(=O)N[C@@H]2C(=O)N3C2SC(C)(C)C3C(=O)O)c2ccccc2)CSC1=S (stereo partly specified) |  | > 100 µM |
| COC(=O)c1c(C)[nH]c(/C=C2\N=C(c3ccc[nH]3)C=C2OC)c1C | 0.525 µM | 2.02 µM |
| CC(C)c1cc2c(O)c(c1)Cc1cc(C(C)C)cc(c1O)Cc1cc(C(C)C)cc(c1O)Cc1cc(C(C)C)cc(c1O)C2 |  | > 100 µM |
| COc1ccc(/C=C\c2cc(OC)c(OC)c(OC)c2)cc1OC(=O)NCCN(C)C |  | 98.3 µM |
| CCCCOC(=O)NC(=O)c1cn(C2CCCCC2)c(=O)[nH]c1=O |  | 80.4 µM |
| CC(C)CCCC(=O)CCCCCCC(=O)CCN(O)C(=O)C(N)CO (stereo unspecified) |  | 36.6 µM |
| Cc1ccc(NC(=O)NCCCOc2ccc(N3C(N)=NC(N)=NC3(C)C)cc2Cl)cc1S(=O)(=O)F | 12 µM | 81 µM |
| CC[CH2][Sn]([Cl])([Cl])[CH2]CC.Oc1ccccc1C=NCCN=Cc1ccccc1O | 1.57 µM | 4.61 µM |
| COc1cc2c(c(OC)c1)C1(CC(CC#N)C2)SCCS1 (stereo unspecified) |  | > 100 µM |
| CCOC(=O)CCn1[nH]c(=O)c(Cl)c(Cl)c1=O |  | > 100 µM |
| COc1ccc(CNc2nc3cc(C(F)(F)F)ccc3nc2C)cc1OC |  | 44.1 µM |
| C/C=C1/C(=C/c2[nH]c(/C=c3\[nH]/c(=C/C4=NC(=O)C(CC)=C4C)c(C)c3CCC(=O)O)c(CCC(=O)O)c2C)NC(=O)C1C (stereo unspecified) | > 150 µg/mL | > 150 µg/mL |
| COc1cccc(/C=C2\C(=O)N(C(=O)c3ccc(NC(C)=O)cc3)N=C2C)c1 |  | > 100 µM |
| N#CCc1ccc(C(C#N)/C(CCCC(=O)Nc2cccc([N+](=O)[O-])c2)=N/NC(N)=S)cc1 (stereo unspecified) |  | > 100 µM |
| COC(C(O)c1ccc2c(c1)OCO2)P(=O)(c1ccccc1)c1ccccc1 (stereo unspecified) |  | > 100 µM |
| N#C/C(=C\c1cc2ccccc2c2ccccc12)c1ccccc1 |  | 19.5 µM |
| CCOc1ccc2c(c1)[n+]([O-])c(-c1nc3ccccc3s1)c(N)[n+]2[O-] |  | > 100 µM |
| c1cc[c]([Pb]([c]2ccccc2)[c]2ccccc2)cc1 | 16.7 µM | 36.6 µM |
| CC(=O)N1C/C(=C\c2ccc(N(C)C)cc2)C(=O)/C(=C/c2ccc(N(C)C)cc2)C1 |  | > 100 µM |
| COC1=CC2(C=CC1=O)c1cc(OC)c(OC)cc1CCN2C(=O)c1ccccc1 (stereo unspecified) |  | > 100 µM |
| Cc1[nH]c2ccccc2c1C1Cc2ccccc2N1C(=O)/C(Cl)=C/c1ccccc1 (stereo unspecified) |  | > 100 µM |

What follows are molecules tested on HT29 colon (assay: NCI anticancer screen, dose series, 48 h).

| SMILES | TGI [µM] | GI50 [µM] |
| --- | --- | --- |
| COc1ccc(/C(Cl)=C(\C=O)c2ccc([N+](=O)[O-])cc2)cc1 | 29.9 |  |
| Cc1ccc(-c2cc(=O)c3cc(C)c(C)c(C(=O)O)c3o2)cc1C | > 100 |  |
| O=C(/C=C/c1c(O)ccc2ccccc12)c1ccccc1 | 30.2 |  |
| Cc1nc2ccccc2c(=O)n1-c1ccccc1F | > 100 |  |
| C=C[C@H]1C[C@@H]2C[C@@H]3[C@H]4C/C=C\C(=O)NCCCC5NC(=O)C(=C(O)/C=C/[C@@H]4CC(=O)[C@H]3[C@@H]2[C@H]1C)C5=O (stereo partly specified) | 3.58 | 1.88 |
| Fc1ccc(C2SCc3nc4ccccc4n32)cc1Cl (stereo unspecified) | > 100 |  |
| CC1=N/C(=C\c2cccc([N+](=O)[O-])c2)C(=O)O1 | > 100 |  |
| CO[C@H]1C=C[C@@]23c4cc5c(cc4CO[C@]2(O)CN(C)[C@H]3C1)OCO5 | > 100 |  |
| CC(C)N1CN(C(C(=O)N[C@@H]2C(=O)N3C2SC(C)(C)C3C(=O)O)c2ccccc2)CSC1=S (stereo partly specified) | > 100 |  |
| COC(=O)c1c(C)[nH]c(/C=C2\N=C(c3ccc[nH]3)C=C2OC)c1C | > 100 | 0.0339 |
| CC(C)c1cc2c(O)c(c1)Cc1cc(C(C)C)cc(c1O)Cc1cc(C(C)C)cc(c1O)Cc1cc(C(C)C)cc(c1O)C2 | > 100 |  |
| COc1ccc(/C=C\c2cc(OC)c(OC)c(OC)c2)cc1OC(=O)NCCN(C)C | 19.9 | 0.348 |
| CCCCOC(=O)NC(=O)c1cn(C2CCCCC2)c(=O)[nH]c1=O | > 100 |  |
| CC(C)CCCC(=O)CCCCCCC(=O)CCN(O)C(=O)C(N)CO (stereo unspecified) | 43.5 |  |
| CCOC(=O)CCn1[nH]c(=O)c(Cl)c(Cl)c1=O | > 100 |  |

Reference: PubChem BioAssay (NCI)
